Common to all, as to experiment: relative viability (nuclei count vs DMSO), 5 days (fraction); higher = more cells survive
Compound in assay [1]: COc1cc2c(Oc3ccc4[nH]c(C)cc4c3F)ncnc2cc1OCCCN1CCCC1 [Cediranib] + CCNC(=O)c1noc(-c2cc(C(C)C)c(O)cc2O)c1-c1ccc(CN2CCOCC2)cc1 [Luminespib] (partner 0.01 µM)
Put shortly: (§1)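 After 5 days of treatment, lung cancer cells in 1536-well plates were fixed and stained in a single step (final 0.05% Triton X-100, 1% formaldehyde, 1 ug/ml Hoechst) and their nuclei counted on 4× images. Treatment had been applied by pin tool the day after seeding as one drug alone or as a fixed anchor-drug dose with five library-drug doses (not always all listed) in √10 steps. Relative viability is the nuclei count of treated wells divided by that of vehicle wells, and values are medians of duplicate plates.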

Compound in assay [2]: COc1cc2c(Oc3ccc4[nH]c(C)cc4c3F)ncnc2cc1OCCCN1CCCC1 [Cediranib] + Cc1nc(Nc2ncc(C(=O)Nc3c(C)cccc3Cl)s2)cc(N2CCN(CCO)CC2)n1 [Dasatinib] (partner 0.075 µM)
The gist of the method: as §1

Compound in assay [3]: COc1cc2c(Oc3ccc4[nH]c(C)cc4c3F)ncnc2cc1OCCCN1CCCC1 [Cediranib] + Nc1nc2[nH]cc(CCc3ccc(C(=O)N[C@@H](CCC(=O)O)C(=O)O)cc3)c2c(=O)[nH]1 [Pemetrexed] (partner 0.2 µM)
Put shortly:
as §1

Compound in assay [4]: COc1cc2c(Oc3ccc4[nH]c(C)cc4c3F)ncnc2cc1OCCCN1CCCC1 [Cediranib] + Nc1ncn([C@H]2C[C@H](O)[C@@H](CO)O2)c(=O)n1 [Decitabine] (partner 2 µM)
Put shortly:
as §1

Consider UMC-11, for which the relative viability stood at 1.14 in assay [1] (first compound 0.04 µM); 1.04 in assay [1] (first compound 0.4 µM); 0.903 in assay [1] (first compound 4 µM); 0.5 in assay [2] (first compound 0.04 µM); 0.426 in assay [2] (first compound 0.4 µM); 0.539 in assay [2] (first compound 4 µM). For the same cell line, the relative viability in assay [3] (first compound 0.04 µM) amounted to 0.848; in assay [3] (first compound 0.1265 µM), 0.752; in assay [3] (first compound 0.4 µM), 0.738; in assay [3] (first compound 1.265 µM), 0.824; in assay [3] (first compound 4 µM) it was 0.764; in assay [4] (first compound 0.04 µM) it was 0.617. Moreover, the relative viability in assay [4] (first compound 0.1265 µM) was 0.528; in assay [4] (first compound 0.4 µM) it was 0.557; in assay [4] (first compound 1.265 µM) it was 0.555; in assay [4] (first compound 4 µM), 0.633.

Source of the values: the supplement of paper PMC10307832.
